Test results reported in patent US11739053B2, “P62-ZZ chemical inhibitor” (ID4PHARMA, LLC, priority 2011, dated 2023).

What was measured:
[1] = test system: GFP-labeled human myeloma MM1.S cells; assay: GFP-labeled MM1.S myeloma cell growth with/without stromal cells, fluorescence microscopy; format: cell-based; settings: 10 μM, 72 hours, FIG. 3
Description: FIG. 3 is a graph depicting MM cell growth inhibition. Data is shown as the mean±SD (n=5). *: P<0.01 compared to no-inhibitor cultures without stromal cells. **: P<0.01 compared to no-treatment co-cultured with stromal cells.
Compound 3 was tested for its capacity to block MM-stimulated signaling in marrow stromal cells, thereby resulting in less bone destruction and MM growth. The effects of the compound 3 on GFP-labeled MM1.S myeloma cell growth with/without stromal cells, IL-6 and VCAM-1 expression on stromal cells induced by TNF-α and OCL formation, and TNF-α induced PKCζ phosphorylation, the specific kinase enzyme activated p62-ZZ, were examined. GFP-labeled MM1.S myeloma cells or normal human CFU-GM, a source of OCL precursors, were then co-cultured with human stromal cells with the p62-ZZ inhibitor. The 10 μM of inhibitor compound 3 blocked MM cell growth by 90% compared to vehicle (0.1% DMSO). […] VCAM-1 expression and IL-6 production induced by TNF-α on stromal cells was blocked by 30% and 90% respectively compared to vehicle levels. Furthermore, TNF-α induced PKC, phosphorylation blocked was in stromal cells and MM1.S when pre-treated with this p62-ZZ inhibitory compound for 3 hours.
Primary human bone marrow stromal cells were maintained in 10% FCS-IMDM. Stromal cells (1.5×10^3 cells/well) were cultured one day prior to the start of co-culture. Green fluorescent protein (GFP)-labeled human myeloma MM1.S cells (7.5×10^3 cells/well) were then cultured with/without stromal cells in the presence or absence of the p62-ZZ inhibitors (#1-6) for 72 hours. MM cell growth was determined by fluorescence microscopy.

IL-6 production = assay: TNF-α induced IL-6 production by marrow stromal cells, ELISA; format: cell-based, human; settings: normal human stromal cells, FIG. 5B
Description: FIG. 5A-B: 5A. VCAM-1 expression using Western blot analysis. Normal human stromal cells were cultured with/without TNF and p62-ZZ inhibitors (#1-6) for 48 hours. The cell lysates were collected and VCAM-1 expression was measured using an anti-VCAM-1 antibody (Santa Cruz). FIG. 5B. IL-6 production by human and mouse marrow stromal cells by ELISA. Normal human and mouse marrow stromal cells were cultured with/without TNFα and p62-ZZ inhibitors (#1-6) for 48 hours. The cell culture media were collected and IL-6 production measured using an IL-6 ELISA kit (R &D). Data are shown as the means (n=2).
Normal human or mouse marrow stromal cells were maintained in 10% FBS-IMDM and treated with p62-ZZ inhibitors (#1-6) for 3 hours. Then TNFα or vehicle was added for 48 hours. Cell lysates were collected and VCAM-1 expression measured by Western blot using an anti-VCAM-1 antibody (Santa Cruz). The culture media were collected and IL-6 production was measured using an IL-6 ELISA kit (R&D Company).

O=C(O)CNC(=O)c1ccc(NCc2oc(CO)c(CNc3ccc(C(=O)NCC(=O)O)cc3)c(=O)c2O)cc1 [Compound 4]
MM cell growth (result in words) [1]: directly blocked MM cell growth

OC[C@@H](O)[C@@H](O)[C@H](O)[C@H](O)C(/C=N/Nc1ccccc1)=N/Nc1ccccc1 [Compound 2]
MM cell growth (result in words) [1]: directly blocked MM cell growth
IL-6 production by TNF-α stimulated normal human stromal cells (result in words) (IL-6 production): blocked IL-6 production

CCOc1ccccc1/C=N/Nc1ccc(S(=O)(=O)c2ccc(N/N=C/c3ccccc3OCC)cc2)cc1 [Compound 5]
IL-6 production by TNF-α stimulated normal human stromal cells (result in words) (IL-6 production): blocked IL-6 production
